Assay results as given in patent US20260216348A1, “IRAK DEGRADATION AGENT AND USE THEREOF” (Increland, priority 2023, published 2026).
Where two headings read alike, the source gives them in different places.

Columns and labels:
[1] = Pharmacokinetic experiment on SD rats (iv and intragastric); assay type: in vivo; details: Sprague-Dawley, rat, plasma; for Cmax: read-out: Peak plasma concentration Cmax
Method: Pharmacokinetic experiment on SD rats: in this experiment, two administration modes: oral intragastric administration and tail vein injection were selected. Oral administration was performed at a dose of 5 mg/kg using the compounds of the present disclosure. The administration volume was 10 mL/kg. Prior to use, an appropriate amount of the drug was accurately weighed and first dissolved in dimethyl sulfoxide (DMSO). An appropriate amount of Solutol and H2O were then added in sequence at a final volume ratio of 5% DMSO, 10% Solutol and 85% H2O. The mixture was sonicated and vortexed to homogeneity to prepare a clear drug solution with a concentration of 0.5 mg/mL. Intravenous administration was performed at a dose of 1 mg/kg using the compounds of the present disclosure. The administration volume was 10 mL/kg. Prior to use, an appropriate amount of each drug was accurately weighed separately, followed by the sequential addition of a suitable volume of PEG 400 and Saline at a final volume ratio of 20% PEG 400 to 80% Saline. The mixture was sonicated and vortexed to homogeneity to prepare a clear drug solution with a concentration of 0.1 mg/mL.
6 SD rats, each with body weight of 180-220 g, were randomly grouped into 2 groups. The animals were fasted overnight with free access to water. For the first group, intragastric administration was performed, and 200 μL of blood was collected from the orbital venous plexus into anticoagulant tubes at 15 min, 30 min, 1 h, 2 h, 4 h, 6 h, 8 h and 24 h post-administration, respectively. Within one hour, the blood samples were centrifuged at 10000 rpm for 20 m at 4° C. (preserved on an ice box prior to centrifugation). The upper supernatant, i.e., plasma, was harvested and stored in a refrigerator at −20° C. for subsequent LC-MS/MS analysis. For the second group, intravenous administration was conducted, and 200 μL of blood was collected from the orbital venous plexus into anticoagulant tubes at 5 min, 15 min, 30 min, 1 h, 2 h, 4 h, 8 h and 24 h post-administration, respectively. Within one hour, the blood samples were centrifuged at 10000 rpm for 20 min at […] (preserved on an ice box prior to centrifugation). The upper supernatant, i.e., plasma, was harvested and stored in a refrigerator at −20° C. for subsequent LC-MS/MS analysis.

[2] = as above; assay type: in vivo; details: Sprague-Dawley, rat, plasma, po; for bioavailability: ig 10.00 mg/kg vs iv 1.00 mg/kg, read-out: Oral bioavailability Fobs; for AUC / AUC(0-inf) / Cmax: ig, 10.00 mg/kg; for Cmax: read-out: Peak plasma concentration Cmax
[3] = test system: LPS/IL-1β-induced IL-6 secretion in human peripheral blood mononuclear cells (PBMCs); assay: Inhibition of LPS/IL-1β-induced IL-6 secretion in human PBMCs (IL-6 ELISA); assay type: cell-based; details: PBMC, LPS 10 ng/mL + IL-1β 20 ng/mL, 24 h pre-incubation, 20 h stimulation
Method in brief: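 PBMCs preincubated 24 h at 37 °C with compounds (5-fold dilutions from 1 μM) in RPMI/10% FBS, then stimulated 20 h with LPS 10 ng/mL plus IL-1β 20 ng/mL (final). IL-6 in 200-fold diluted supernatant measured by ELISA at OD450 against a standard curve; IC50 from dose-response fitting.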

[4] = test system: R848-induced IL-6 secretion in human peripheral blood mononuclear cells (PBMCs); assay: Inhibition of R848-induced IL-6 secretion in human PBMCs (IL-6 ELISA); assay type: cell-based; details: PBMC, R848 2.5 μg/mL, 20 h pre-incubation, 24 h stimulation
Method in brief: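 Human PBMCs at 1.25×10^6 cells/mL were preincubated for 20 h at 37 °C with compound, starting at 1 μM in 4-fold dilutions. They were then stimulated with 2.5 μg/mL R848 for 24 h. Supernatant IL-6 was measured by ELISA at OD450 against a standard curve.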

| Compound | AUC ([1]; iv, 1.00 mg/kg) | AUC(0-inf) ([1]; iv, 1.00 mg/kg) | Cmax ([1]; iv, 1.00 mg/kg) | bioavailability [2] | AUC [2] | AUC(0-inf) [2] | Cmax [2] | bioavailability ([1]; po, ig 5.00 mg/kg vs iv 1.00 mg/kg, read-out: Oral bioavailability Fobs) | AUC ([1]; po, ig, 5.00 mg/kg) | AUC(0-inf) ([1]; po, ig, 5.00 mg/kg) | Cmax ([1]; po, ig, 5.00 mg/kg) | IC50 [3] | IC50 [4] |
| --- | --- | --- | --- | --- | --- | --- | --- | --- | --- | --- | --- | --- | --- |
| CN(C)c1cc2nn([C@H]3CC[C@H](CN4C[C@@H](F)[C@H](n5cc6cc(C7CCC(=O)NC7=O)ccc6n5)C4)CC3)cc2cc1NC(=O)c1cnn2cccnc12 (some centres unmarked) [TM-244] | 2010 ± 361 ng·h/mL | 2440 ± 585 ng·h/mL | 784 ± 126 ng/mL | 54.2% | 13000 ± 2900 ng·h/mL | 13200 ± 2960 ng·h/mL | 1330 ± 294 ng/mL |  |  |  |  | 4.95 nM | 14.4 nM |
| CN(C)c1cc2nn([C@H]3CC[C@H](CN4C[C@@H](F)[C@@H](n5cc6cc(C7CCC(=O)NC7=O)c(F)cc6n5)C4)CC3)cc2cc1NC(=O)c1cnn2cccnc12 (some centres unmarked) [TM-240] | 2630 ± 172 ng·h/mL | 2670 ± 175 ng·h/mL | 652 ± 32 ng/mL | 29.9% | 7990 ± 3140 ng·h/mL | 7990 ± 3120 ng·h/mL | 976 ± 545 ng/mL |  |  |  |  | 1.09 nM | 2.68 nM |
| CN(C)c1cc2nn([C@H]3CC[C@H](CN4C[C@@H](n5cc6cc(N7CCC(=O)NC7=O)ccc6n5)[C@@H](F)C4)CC3)cc2cc1NC(=O)c1cnn2cccnc12 [TM-205] |  |  |  |  |  |  |  |  |  |  |  | 2.47 nM | 3.78 nM |
| CN(C)c1cc2nn([C@H]3CC[C@H](CN4CCC(n5cc6c(F)cc(N7CCC(=O)NC7=O)cc6n5)CC4)CC3)cc2cc1NC(=O)c1cnn2cccnc12 [TM-174] | 1480 ± 167 ng·h/mL | 1700 ± 254 ng·h/mL | 272 ± 34.5 ng/mL | 24.5% | 3630 ± 1500 ng·h/mL | 4160 ± 1440 ng·h/mL | 356 ± 201 ng/mL |  |  |  |  | 1.49 nM | 3.19 nM |

More lines, main results first:

| AUC ([1]; iv, 1.00 mg/kg) | AUC(0-inf) ([1]; iv, 1.00 mg/kg) | Cmax ([1]; iv, 1.00 mg/kg) | bioavailability [2] | AUC [2] | AUC(0-inf) [2] | Cmax [2] | bioavailability ([1]; po, ig 5.00 mg/kg vs iv 1.00 mg/kg, read-out: Oral bioavailability Fobs) | AUC ([1]; po, ig, 5.00 mg/kg) | AUC(0-inf) ([1]; po, ig, 5.00 mg/kg) | Cmax ([1]; po, ig, 5.00 mg/kg) | Compound | IC50 [3] | IC50 [4] |
| --- | --- | --- | --- | --- | --- | --- | --- | --- | --- | --- | --- | --- | --- |
| 2280 ± 190 ng·h/mL | 2400 ± 354 ng·h/mL | 613 ± 39.8 ng/mL | 38.8% | 8610 ± 4000 ng·h/mL | 9310 ± 4680 ng·h/mL | 814 ± 187 ng/mL |  |  |  |  | CN(C)c1cc2nn([C@H]3CC[C@H](CN4C[C@H](F)[C@@H](n5cc6cc(C7CCC(=O)NC7=O)c(F)cc6n5)C4)CC3)cc2cc1NC(=O)c1cnn2cccnc12 (some centres unmarked) [TM-249] | 3.08 nM | 4.37 nM |
| 2910 ± 62.8 ng·h/mL | 2980 ± 114 ng·h/mL | 554 ± 60.7 ng/mL | 63.7% | 14500 ± 1420 ng·h/mL | 19000 ± 5060 ng·h/mL | 1190 ± 92.3 ng/mL |  |  |  |  | CN(C)c1cc2nn([C@H]3CC[C@H](CN4C[C@@H](F)[C@H](n5cc6cc(C7CCC(=O)NC7=O)c(F)cc6n5)C4)CC3)cc2cc1NC(=O)c1cnn2cccnc12 (some centres unmarked) [TM-245] | 2.58 nM | 4.02 nM |
| 4140 ± 1290 ng·h/mL | 4220 ± 1300 ng·h/mL | 920 ± 124 ng/mL | 35.2% | 14200 ± 4660 ng·h/mL | 14900 ± 4690 ng·h/mL | 1650 ± 641 ng/mL |  |  |  |  | CN(C)c1cc2nn([C@H]3CC[C@H](CN4C[C@@H](n5cc6cc(C7CCC(=O)NC7=O)c(F)cc6n5)[C@@H](F)C4)CC3)cc2cc1NC(=O)c1cnn2cccnc12 (some centres unmarked) [TM-241] | 6.35 nM | 9.08 nM |
| 1170 ± 260 ng·h/mL | 1220 ± 333 ng·h/mL | 790 ± 65.9 ng/mL |  |  |  |  | 33.2% | 1900 ± 565 ng·h/mL | 2030 ± 529 ng·h/mL | 433 ± 198 ng/mL | CN(C)c1cc2nn([C@H]3CC[C@H](CN4CC[C@@H](n5cc6cc(C7CCC(=O)NC7=O)c(F)cc6n5)[C@@H](F)C4)CC3)cc2cc1NC(=O)c1cnn2cccnc12 (some centres unmarked) [TM-135] | 2.66 nM | 4.53 nM |
